Assay results from patent publication US7550458B2, “Tricycloundecane compounds useful as modulators of nuclear hormone receptor function” (Bristol-Myers Squibb Company, priority 2005, dated 2009).
Read-outs that look alike come from different tables or passages of the source.

Key:
AR [1] = molecular target: T1, AR (Rattus norvegicus, UniProt P15207)
T1 sequence (P15207 1-902): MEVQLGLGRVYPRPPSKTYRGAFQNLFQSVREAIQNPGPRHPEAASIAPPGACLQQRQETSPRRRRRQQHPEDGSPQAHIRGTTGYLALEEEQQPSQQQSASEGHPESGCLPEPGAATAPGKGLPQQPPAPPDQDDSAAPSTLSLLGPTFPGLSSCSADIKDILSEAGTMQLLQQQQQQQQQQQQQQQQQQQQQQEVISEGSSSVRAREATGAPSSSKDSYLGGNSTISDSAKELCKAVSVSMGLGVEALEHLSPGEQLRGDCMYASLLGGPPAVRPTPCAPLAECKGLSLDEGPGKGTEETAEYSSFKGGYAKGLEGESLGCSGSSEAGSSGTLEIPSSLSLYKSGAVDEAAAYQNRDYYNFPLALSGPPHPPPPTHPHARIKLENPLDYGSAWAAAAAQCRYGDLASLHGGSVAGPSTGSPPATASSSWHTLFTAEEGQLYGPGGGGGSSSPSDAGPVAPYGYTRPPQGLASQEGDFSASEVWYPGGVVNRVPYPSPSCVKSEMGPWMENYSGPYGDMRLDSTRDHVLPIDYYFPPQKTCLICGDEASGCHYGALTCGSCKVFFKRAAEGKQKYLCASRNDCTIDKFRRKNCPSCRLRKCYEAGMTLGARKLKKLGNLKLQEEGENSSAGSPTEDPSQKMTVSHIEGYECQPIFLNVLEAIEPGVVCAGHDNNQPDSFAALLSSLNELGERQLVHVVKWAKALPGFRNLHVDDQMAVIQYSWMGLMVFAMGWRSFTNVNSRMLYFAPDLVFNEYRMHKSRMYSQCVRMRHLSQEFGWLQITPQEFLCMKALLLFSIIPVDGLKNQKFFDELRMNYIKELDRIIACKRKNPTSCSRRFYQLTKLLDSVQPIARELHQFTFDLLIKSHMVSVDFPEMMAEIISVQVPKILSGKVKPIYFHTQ

AR [2] = molecular target: T1, AR; settings: castrated rats, dosing for 3 days
wild type AR = assay: AR whole cell binding assay, saturation analysis, MDA 453 cells; design: species or system human; settings: read-out: Kd for [^3H]-DHT, Scatchard analysis
glucocorticoid receptor = glucocorticoid receptor (Homo sapiens, UniProt P04150); settings: at a concentration of ≦10 μM, A549 cells
Description: Cells are plated the day before the assay at approximately 40000 cells/well. […] Activity is measured by analysis in a luminometer as compared to control experiments treated with buffer or dexamethasome.

glucocorticoid receptor, sequence (P04150 whole entry): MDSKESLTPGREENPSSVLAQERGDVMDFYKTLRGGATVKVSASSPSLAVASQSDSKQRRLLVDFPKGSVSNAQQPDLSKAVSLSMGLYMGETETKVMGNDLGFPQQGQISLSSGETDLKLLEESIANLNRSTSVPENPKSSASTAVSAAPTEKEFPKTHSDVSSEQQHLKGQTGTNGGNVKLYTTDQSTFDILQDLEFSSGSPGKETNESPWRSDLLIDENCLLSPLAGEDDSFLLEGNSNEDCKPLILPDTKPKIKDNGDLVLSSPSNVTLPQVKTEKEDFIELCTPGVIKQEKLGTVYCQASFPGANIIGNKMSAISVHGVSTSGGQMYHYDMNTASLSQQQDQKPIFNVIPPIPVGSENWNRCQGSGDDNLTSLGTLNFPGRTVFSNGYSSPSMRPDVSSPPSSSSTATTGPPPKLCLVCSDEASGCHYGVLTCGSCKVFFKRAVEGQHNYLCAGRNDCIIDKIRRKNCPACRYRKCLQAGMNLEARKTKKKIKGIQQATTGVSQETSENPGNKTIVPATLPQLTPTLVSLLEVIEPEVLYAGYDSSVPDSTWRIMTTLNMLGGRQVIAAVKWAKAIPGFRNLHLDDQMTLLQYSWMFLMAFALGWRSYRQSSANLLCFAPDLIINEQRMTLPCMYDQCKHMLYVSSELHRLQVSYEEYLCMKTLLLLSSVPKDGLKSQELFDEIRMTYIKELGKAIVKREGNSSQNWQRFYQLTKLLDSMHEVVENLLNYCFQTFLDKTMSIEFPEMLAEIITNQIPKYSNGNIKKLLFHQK

**Q.** Which results are given for CCC(=O)O[C@H]1CC[C@H]2[C@@H]3CCC4=CC(=O)CC[C@]4(C)[C@H]3CC[C@]12C [TP, testosterone propionate]?
**A.** ED80 of TP (AR [1]; immature castrated rat model): 0.1 mg; EC50 (increase in organ weight) (AR [1]; immature castrated rats, dosing for 3 days): ~0.03 mg; EC50 (increase in organ weight) (AR [2]): ~0.03 mg

**Q.** With C[C@@H]1C[C@H]2[C@@H]3CCC4=CC(=O)C=C[C@]4(C)[C@@]3(F)[C@@H](O)C[C@]2(C)[C@@]1(O)C(=O)CO [dexamethasone] as the molecule, how does the “suppression of activity (% inhibition of the reporter system vs buffer control with 10 ng/ml PMA)” value (glucocorticoid receptor) read?
**A.** ~65%
